20 compounds from US10807952B2 (Achillion Pharmaceuticals, Inc., priority 2015, dated 2020) can be followed below.

Where only a bound is given, the exact number is not on record here.

Chain of Human Factor D (P00746 26-253): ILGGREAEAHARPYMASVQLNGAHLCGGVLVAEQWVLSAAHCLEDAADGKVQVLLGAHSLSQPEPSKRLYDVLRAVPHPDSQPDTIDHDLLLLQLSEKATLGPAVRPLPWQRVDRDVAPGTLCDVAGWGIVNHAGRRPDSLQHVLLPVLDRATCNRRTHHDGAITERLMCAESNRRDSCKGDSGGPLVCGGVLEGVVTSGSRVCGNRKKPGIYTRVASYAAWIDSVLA

The target in the first assay is Human Factor D (Homo sapiens (Human), UniProt P00746). The experiment in a line: Human Factor D assay (Z-L-Lys-SBzl / DTNB, absorbance at 405 nm). It counts as biochemical. The conditions noted are these: Table 3; Human Factor D 80 nM, assay of Example 13. In outline:
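Human serum-purified Factor D (80 nM final) was preincubated with compound for 5 min at room temperature in 50 mM Tris, 1M NaCl, pH 7.5. IC50 came from nonlinear regression of rate versus compound concentration.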
`N#Cc1cc(CC(=O)N2C[C@H](F)C[C@H]2C(=O)Nc2cccc(-c3ccccc3Cl)c2F)ccc1Cl` [Compound 23, (2S,4R)-N-(2′-chloro-2-fluorobiphenyl-3-yl)-1-(2-(4-chloro-3-cyanophenyl)acetyl)-4-fluoropyrrolidine-2-carboxamide] registered an IC50 of 1000 to 10000 nM.

As for `NC(=O)c1nn(CC(=O)N2C[C@H](F)C[C@H]2C(=O)Nc2cccc(-c3ccc4cn[nH]c4c3)c2F)c2ccccc12` [Compound 28, 1-(2-((2S,4R)-4-fluoro-2-(2-fluoro-3-(1H-indazol-6-yl)phenylcarbamoyl)pyrrolidin-1-yl)-2-oxoethyl)-1H-indazole-3-carboxamide], the IC50 was < 1000 nM.

Regarding `CS(=N)(=O)c1cccc(-c2cccc(NC(=O)[C@@H]3C[C@@H](F)CN3C(=O)Cn3nc(C(N)=O)c4ccccc43)c2F)c1` (stereo partly drawn) [Compound 65, 1-(2-((2S,4R)-4-fluoro-2-(2-fluoro-3′-(S-methylsulfonimidoyl)biphenyl-3-ylcarbamoyl)pyrrolidin-1-yl)-2-oxoethyl)-1H-indazole-3-carboxamide], the IC50 was in the range of 1000 to 10000 nM.

In the case of `NC(=O)c1nn(CC(=O)N2C[C@H](F)C[C@H]2C(=O)Nc2cccc(-c3ccc4cc[nH]c4c3)c2F)c2ccccc12` [Compound 25, 1-(2-((2S,4R)-4-fluoro-2-(2-fluoro-3-(1H-indol-6-yl)phenylcarbamoyl)pyrrolidin-1-yl)-2-oxoethyl)-1H-indazole-3-carboxamide], the IC50 was < 1000 nM.

`NC(=O)c1nn(CC(=O)N2C[C@H](F)C[C@H]2C(=O)Nc2cccc(-c3ccc4cn[nH]c4c3Cl)c2F)c2ccccc12` [Compound 47]: the IC50 was < 1000 nM.

As for `Cc1nc2c(Cl)c(-c3cccc(NC(=O)[C@@H]4C[C@@H](F)CN4C(=O)Cn4nc(C(N)=O)c5ccccc54)c3F)ccc2[nH]1` [Compound 12, 1-(2-((2S,4R)-2-(3-(4-chloro-2-methyl-1H-benzo[d]imidazol-5-yl)-2-fluorophenyl-carbamoyl)-4-fluoropyrrolidin-1-yl)-2-oxoethyl)-1H-indazole-3-carboxamide], the half-maximal inhibitory concentration (IC50) is < 1000 nM.

Turning to `CC(=O)c1cn(CC(=O)OC(C)(C)C)c2cc(-c3cccc(NC(=O)[C@@H]4C[C@@H](F)CN4C(=O)Cn4nc(C(N)=O)c5ccccc54)c3F)ccc12` [Compound 30, tert-butyl 2-(3-acetyl-6-(3-((2S,4R)-1-(2-(3-carbamoyl-1H-indazol-1-yl)acetyl)-4-fluoropyrrolidine-2-carboxamido)-2-fluorophenyl)-1H-indol-1-yl)acetate], the IC50 lay in the range of 1000 to 10000 nM.

Compound `CC(=O)c1cn(CC(=O)O)c2cc(-c3cccc(NC(=O)[C@@H]4C[C@@H](F)CN4C(=O)Cn4nc(C(N)=O)c5ccccc54)c3F)ccc12` [Compound 31, 2-(3-acetyl-6-(3-((2S,4R)-1-(2-(3-carbamoyl-1H-indazol-1-yl)acetyl)-4-fluoropyrrolidine-2-carboxamido)-2-fluorophenyl)-1H-indol-1-yl)acetic acid] came in with a 50% inhibitory concentration (IC50) of 1000 to 10000 nM.

As to `Cc1cc2c(s1)c(C(=N)N)nn2CC(=O)N1C[C@H](F)C[C@H]1C(=O)Nc1cccc(-c2ccccc2Cl)c1F` [Compound 73, (2S,4R)-1-(2-(3-carbamimidoyl-5-methyl-1H-thieno[3,2-c]pyrazol-1-yl)acetyl)-N-(2′-chloro-2-fluorobiphenyl-3-yl)-4-fluoropyrrolidine-2-carboxamide], the IC50 was < 1000 nM.

On to `NC(=O)c1nn(CC(=O)N2C[C@H](F)C[C@H]2C(=O)Nc2cccc(-c3ccc4scnc4c3)c2F)c2ccccc12` [Compound 52, 1-(2-((2S,4R)-2-(3-(benzo[d]thiazol-5-yl)-2-fluorophenyl-carbamoyl)-4-fluoropyrrolidin-1-yl)-2-oxoethyl)-1H-indazole-3-carboxamide], for which the IC50 is < 1000 nM.

For `NC(=O)c1nn(CC(=O)N2C[C@H](F)C[C@H]2C(=O)Nc2cccc(-c3ccc4[nH]ncc4c3Cl)c2F)c2ccccc12` [Compound 17, 1-(2-((2S,4R)-2-(3-(4-chloro-1H-indazol-5-yl)-2-fluorophenyl-carbamoyl)-4-fluoropyrrolidin-1-yl)-2-oxoethyl)-1H-indazole-3-carboxamide], the IC50 was < 1000 nM.

Turning to `Cc1nc2cc(-c3cccc(NC(=O)[C@@H]4C[C@@H](F)CN4C(=O)Cn4nc(C(N)=O)c5ccccc54)c3F)ccc2[nH]1` [Compound 10], the IC50 was < 1000 nM.

Still in this assay, the particulars now being: Table 4; Human Factor D 80 nM, assay of Example 13.
With `CC(=O)c1nn(CC(=O)N2C[C@H](F)C[C@H]2C(=O)Nc2cccc(-c3ccc4nccnc4c3)c2F)c2ccccc12` [Compound 83, (2S,4R)-1-(2-(3-acetyl-1H-indazol-1-yl)acetyl)-4-fluoro-N-(2-fluoro-3-(quinoxalin-6-yl)phenyl)pyrrolidine-2-carboxamide], the half-maximal inhibitory concentration (IC50) is < 1000 nM.

`CC(=O)c1nn(CC(=O)N2C[C@H](F)C[C@H]2C(=O)Nc2cccc(/C=C/c3nc4c(Cl)cccc4[nH]3)c2F)c2ccccc12` [Compound 104, (2S,4R)-1-(2-(3-acetyl-1H-indazol-1-yl)acetyl)-N-(3-((E)-2-(4-chloro-1H-benzo[d]imidazol-2-yl)vinyl)-2-fluorophenyl)-4-fluoropyrrolidine-2-carboxamide]: the IC50 is < 1000 nM.

`CC(=O)c1nn(CC(=O)N2C[C@H](F)C[C@H]2C(=O)Nc2cccc(-c3ccc4[nH]ccc4c3)c2F)c2ccccc12` [Compound 85, (2S,4R)-1-(2-(3-acetyl-1H-indazol-1-yl)acetyl)-4-fluoro-N-(2-fluoro-3-(1H-indol-5-yl)phenyl)pyrrolidine-2-carboxamide]: the 50% inhibitory concentration (IC50) is < 1000 nM.

For `CC(=O)c1nn(CC(=O)N2[C@@H]3C[C@@H]3C[C@H]2C(=O)Nc2cccc(-c3cc(Cl)c4[nH]ccc4c3)c2F)c2ccccc12` [Compound 86, (1R,3S,5R)-2-(2-(3-acetyl-1H-indazol-1-yl)acetyl)-N-(3-(7-chloro-1H-indol-5-yl)-2-fluorophenyl)-2-azabicyclo[3.1.0]hexane-3-carboxamide], the IC50 was > 10000 nM.

On to `N#CNC(=O)c1ccc(Cl)c(-c2cccc(NC(=O)[C@@H]3C[C@@H](F)CN3C(=O)Cn3nc(C(N)=O)c4ccccc43)c2F)c1` [Compound 89, 1-(2-((2S,4R)-2-((2′-chloro-5′-(cyanocarbamoyl)-2-fluoro-[1,1′-biphenyl]-3-yl)carbamoyl)-4-fluoropyrrolidin-1-yl)-2-oxoethyl)-1H-indazole-3-carboxamide], for which the half-inhibitory concentration (IC50) was < 1000 nM.

`NC(=O)c1nn(CC(=O)N2C[C@H](F)C[C@H]2C(=O)Nc2cccc(-c3ccc4oc(=O)[nH]c4c3)c2F)c2ccccc12` [Compound 92, 1-(2-((2S,4R)-4-fluoro-2-((2-fluoro-3-(2-oxo-2,3-dihydrobenzo[d]oxazol-5-yl)phenyl)carbamoyl)pyrrolidin-1-yl)-2-oxoethyl)-1H-indazole-3-carboxamide]: the IC50 was < 1000 nM.

Take `NC(=O)c1cc(O)cc(CC(=O)N2C[C@H](F)C[C@H]2C(=O)Nc2cccc(-c3ccccc3Cl)c2F)c1` [Compound 78, (2S,4R)-1-(2-(3-carbamoyl-5-hydroxyphenyl)acetyl)-N-(2′-chloro-2-fluoro-[1,1′-biphenyl]-3-yl)-4-fluoropyrrolidine-2-carboxamide]: the IC50 is < 1000 nM.

Take `COC(=O)c1cc(-c2cccc(NC(=O)[C@@H]3C[C@@H](F)CN3C(=O)Cn3nc(C(N)=O)c4ccccc43)c2F)cc2[nH]c(N)nc12` [Compound 76, methyl 2-amino-6-(3-((2S,4R)-1-(2-(3-carbamoyl-1H-indazol-1-yl)acetyl)-4-fluoropyrrolidine-2-carboxamido)-2-fluorophenyl)-1H-benzo[d]imidazole-4-carboxylate]: the IC50 is < 1000 nM.
